The results in this text go back to paper PMC12668304, “A Triple Threat Against Ovarian Cancer: Os(II)‐Pt(IV)‐Ceritinib Conjugates for Photodynamic Therapy, Chemotherapy, and Immunogenic Cell Death Induction” (Angewandte Chemie (International Ed. in English), 2025).

The subject of this test is MCA205 cells co-incubated with RAW 264.7 macrophages. As to the kind of experiment: Phagocytosis of treated cancer cells by macrophages (flow cytometry, confocal microscopy). The format is cell-based, mouse. Particulars: IC50,48 h concentration, 3 h co-incubation. The procedure:
All compounds were incubated for 4 h with the cells, which were either irradiated at 740 nm (1 h) or kept in the dark. 16 h post‐treatment, cancer cells were stained with CellMask Green, while RAW 264.7 macrophages were stained with CellMask DeepRed. Co‐culture was performed at a 1 : 2 (macrophage : tumour cells) ratio for 3 h. Thereafter, the phagocytosis was evaluated by flow cytometry and confocal microscopy.
To quantify this phagocytic response, a flow cytometry assay was performed, see Figure 12. MCA205 cells were incubated with Os‐Pt‐Cer for 4 h, after which half of the samples were either kept in the dark (−L) or irradiated (+L) for 1 h (740 nm). After an additional 16 h, the cells were co‐incubated with RAW 264.7 macrophages for 3 h. […] Flow cytometry analysis was used to quantify phagocytosis, identifying double‐positive (green–red) events as phagocytic macrophages. […]
analyzed using an ATP assay kit according to the manufacturer’s instructions. Luminescence was measured on a SPARK multimode reader (Tecan). […]
MCA205 and A2780 cells were seeded on µ-slide 8 well (Ibidi) (100 µl/well) and left for 24 h to attach to the bottom at a density of 2 x 10^4 cells/well and incubated overnight. […] 30 minutes before starting confocal fluorescence microscopy analysis, Hoechst was added at a final concentration of 1 µg/mL. […] Images were analysed with LAS X Film FCS software. […]
On the technique in general: Flow cytometry measures light scatter and fluorescence of single cells or particles in a stream.

For the compound `O=C1[O][Pt]2([NH][C@@H]3CCCC[C@H]3[NH]2)[O]C1=O` [Oxaliplatin], the “phagocytosis, double‐positive (green–red) events (upper right quadrant)” value (light condition not given) worked out at 6.0%. Turning to `C=Cc1c(C)c2cc3nc(c(CC(=O)O)c4[nH]c(cc5nc(cc1[nH]2)C(C)=C5CC)c(C)c4C(=O)O)[C@@H](CCC(=O)O)[C@@H]3C` [Ce6, Chlorin e6], where the note is “+L (740 nm, 1 h)”, the “phagocytosis, double‐positive (green–red) events (upper right quadrant)” value stood at 7.4%.
